According to PMC10728955 (RSC Advances, 2023):

Legend:
HepG2 cells = assay: cells; settings: Homo sapiens, HepG2, read-out: In vitro cytotoxicity IC50, HepG2
MCF-7 cells [1] = assay: cells; settings: Homo sapiens, MCF7, read-out: In vitro cytotoxicity IC50, MCF-7
[2] = test system: normal human lung cells (WI-38); settings: WI-38 versus HepG2
MCF-7 cells [3] = assay: Cell migration and scratch wound healing assay; format: cell-based
MCF-7 cells [4] = assay: Apoptosis assay, annexin V-FITC/PI; format: cell-based; settings: 0.04 μM, 72 h
MCF-7 cells [5] = assay: Cell cycle analysis by flow cytometry; format: cell-based; settings: 0.041 μM, 72 h
[6] = test system: normal human lung cells (WI-38); assay: cells; settings: WI-38, read-out: WI-38 IC50
Bcl-2 = format: cell-based; settings: MCF-7, 0.04 μM
Human VEGFR-2 = Human VEGFR-2 (Homo sapiens, UniProt P35968); assay: In vitro VEGFR-2 inhibition, VEGFR-2 ELISA kit; format: biochemical
Sequence of Human VEGFR-2 (P35968 20-1356): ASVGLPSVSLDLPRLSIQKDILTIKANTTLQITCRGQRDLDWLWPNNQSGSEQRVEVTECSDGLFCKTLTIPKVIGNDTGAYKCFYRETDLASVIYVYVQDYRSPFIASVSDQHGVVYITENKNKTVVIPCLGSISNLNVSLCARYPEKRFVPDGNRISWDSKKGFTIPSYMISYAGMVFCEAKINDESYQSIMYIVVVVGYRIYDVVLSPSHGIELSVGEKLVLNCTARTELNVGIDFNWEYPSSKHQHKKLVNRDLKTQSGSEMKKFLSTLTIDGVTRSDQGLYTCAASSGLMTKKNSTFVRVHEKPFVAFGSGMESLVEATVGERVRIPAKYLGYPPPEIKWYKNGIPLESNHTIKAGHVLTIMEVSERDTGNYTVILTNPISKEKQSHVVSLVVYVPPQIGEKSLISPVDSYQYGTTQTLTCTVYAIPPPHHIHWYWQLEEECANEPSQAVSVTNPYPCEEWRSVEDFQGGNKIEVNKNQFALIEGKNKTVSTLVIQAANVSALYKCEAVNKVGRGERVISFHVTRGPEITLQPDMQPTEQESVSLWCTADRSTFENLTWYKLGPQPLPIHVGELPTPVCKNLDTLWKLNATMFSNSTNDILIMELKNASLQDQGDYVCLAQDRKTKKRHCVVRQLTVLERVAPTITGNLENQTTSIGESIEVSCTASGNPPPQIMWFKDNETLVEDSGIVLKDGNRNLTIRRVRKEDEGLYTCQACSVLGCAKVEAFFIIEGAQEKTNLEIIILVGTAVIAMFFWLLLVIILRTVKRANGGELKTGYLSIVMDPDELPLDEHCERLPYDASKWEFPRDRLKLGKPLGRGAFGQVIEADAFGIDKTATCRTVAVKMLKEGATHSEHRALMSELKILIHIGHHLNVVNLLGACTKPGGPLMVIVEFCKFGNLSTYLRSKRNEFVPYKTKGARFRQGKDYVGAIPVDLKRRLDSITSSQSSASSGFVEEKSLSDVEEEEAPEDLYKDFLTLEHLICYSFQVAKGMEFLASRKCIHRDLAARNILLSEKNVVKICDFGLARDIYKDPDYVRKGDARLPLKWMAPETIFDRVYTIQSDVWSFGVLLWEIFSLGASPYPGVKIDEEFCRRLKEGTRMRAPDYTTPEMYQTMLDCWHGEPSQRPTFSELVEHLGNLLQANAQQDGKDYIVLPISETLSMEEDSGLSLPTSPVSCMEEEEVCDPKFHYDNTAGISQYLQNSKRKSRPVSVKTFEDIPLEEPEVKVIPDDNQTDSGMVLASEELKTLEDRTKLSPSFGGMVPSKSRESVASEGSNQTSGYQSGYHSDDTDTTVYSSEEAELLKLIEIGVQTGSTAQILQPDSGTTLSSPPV

For CNC(=O)c1cc(Oc2ccc(NC(=O)Nc3ccc(Cl)c(C(F)(F)F)c3)cc2)ccn1 [Sorafenib, reference compound], which IC50 (HepG2 cells) is on record?
The IC50 was 0.14 ± 0.052 µM.

What about the IC50 (MCF-7 cells [1]) of the same compound?
The IC50 was 0.15 ± 0.013 µM.

With COc1ccc(-n2nc(C(C)=O)s/c2=N\N=C(/C)c2ccc(NC(=O)c3ccc(C)cc3)cc2)cc1 [Compound 18e, N-(4-((E)-1-(((Z)-5-Acetyl-3-(4-methoxyphenyl)-1,3,4-thiadiazol-2(3H)-ylidene) hydrazono)ethyl)phenyl)-4-methylbenzamide] as the compound, how does the IC50 (HepG2 cells) read?
Its IC50 is 0.21 ± 0.045 µM.

And the IC50 (MCF-7 cells [1])?
Its IC50 is 0.19 ± 0.045 µM.

COc1ccc(-n2nc(C(C)=O)s/c2=N\N=C(/C)c2ccc(NC(=O)c3ccccc3)cc2)cc1 [Compound 18a, N-(4-((E)-1-(((Z)-5-Acetyl-3-(4-methoxyphenyl)-1,3,4-thiadiazol-2(3H)-ylidene) hydrazono)ethyl)phenyl) benzamide] was tested. Which IC50 (HepG2 cells) did it give?
Its IC50 is 0.8 ± 0.012 µM.

What about the IC50 (MCF-7 cells [1]) of the same compound?
Its IC50 is 0.16 ± 0.017 µM.

What does the source list for CC(=O)c1nn(-c2ccc(Cl)cc2)/c(=N/N=C(\C)c2ccc(NC(=O)c3ccc(Cl)cc3)cc2)s1 [Compound 18d, N-(4-((E)-1-(((Z)-5-Acetyl-3-(4-chlorophenyl)-1,3,4-thiadiazol-2(3H)-ylidene) hydrazono)ethyl)phenyl)-4-chlorobenzamide]?
IC50 (HepG2 cells): 6.17 ± 0.019 µM; IC50 (MCF-7 cells [1]): 5 ± 0.192 µM

For CC(=O)c1nn(-c2ccc(Cl)cc2)/c(=N/N=C(\C)c2ccc(NC(=O)c3ccc(C)cc3)cc2)s1 [Compound 18f, N-(4-((E)-1-(((Z)-5-Acetyl-3-(4-chlorophenyl)-1,3,4-thiadiazol-2(3H)-ylidene) hydrazono)ethyl)phenyl)-4-methylbenzamide], which IC50 (HepG2 cells) is on record?
Its IC50 is 0.18 ± 0.018 µM.

What about the IC50 (MCF-7 cells [1]) of the same compound?
Its IC50 is 0.44 ± 0.065 µM.

Which results are given for CC(=O)c1nn(-c2ccc(Cl)cc2)/c(=N/N=C(\C)c2ccc(NC(=O)c3ccccc3)cc2)s1 [Compound 18b, N-(4-((E)-1-(((Z)-5-Acetyl-3-(4-chlorophenyl)-1,3,4-thiadiazol-2(3H)-ylidene) hydrazono)ethyl)phenyl) benzamide]?
IC50 (HepG2 cells): 0.2 ± 0.011 µM; IC50 (MCF-7 cells [1]): 0.22 ± 0.098 µM

Which results are given for COc1ccc(-n2nc(C(C)=O)s/c2=N\N=C(/C)c2ccc(NC(=O)c3ccc(Cl)cc3)cc2)cc1 [Compound 18c, N-(4-((E)-1-(((Z)-5-Acetyl-3-(4-methoxyphenyl)-1,3,4-thiadiazol-2(3H)-ylidene) hydrazono)ethyl)phenyl)-4-chlorobenzamide]?
IC50 (HepG2 cells): 0.16 ± 0.032 µM; IC50 (MCF-7 cells [1]): 0.19 ± 0.014 µM

How did the IC50 (HepG2 cells) turn out when COc1ccc(-n2nc(C(C)=O)s/c2=N\N=C(/C)c2ccc(NC(C)=O)cc2)cc1 [Compound 14, N-(4-((E)-1-(((Z)-5-acetyl-3-(4-methoxyphenyl)-1,3,4-thiadiazol-2(3H)-ylidene)hydrazineylidene)ethyl)phenyl)acetamide] was run?
The IC50 was 0.18 ± 0.006 µM.

And the “Selectivity index, HepG2” value [2]?
Its value is roughly 1.28.

And the “Area difference (%)” value (MCF-7 cells [3]; MCF-7, after 48 h)?
The value was 361.667%.

And the “RM (rate of migration)” value (MCF-7 cells [3]; MCF-7, after 48 h)?
Its value is 7.532 μm.

What about the “Wound area at 0 h” value (MCF-7 cells [3]; MCF-7 scratch assay) of the same compound?
Its value is 933.000 μm^2.

And the “Wound area at 24 h” value (MCF-7 cells [3]; MCF-7 scratch assay)?
The value was 836.333 μm^2.

And the “Wound area at 48 h” value (MCF-7 cells [3]; MCF-7 scratch assay)?
Its value is 571.333 μm^2.

And the “Wound width at 0 h” value (MCF-7 cells [3]; MCF-7 scratch assay)?
The value was 932.006 μm.

And the “Wound width at 24 h” value (MCF-7 cells [3]; MCF-7 scratch assay)?
Its value is 835.443 μm.

What about the “Wound width at 48 h” value (MCF-7 cells [3]; MCF-7 scratch assay) of the same compound?
The value was 570.472 μm.

What about the “Early apoptosis (%)” value (MCF-7 cells [4]) of the same compound?
Its value is 16.53%.

And the “Late apoptosis (%)” value (MCF-7 cells [4])?
The value was 29.57%.

And the “Necrosis (%)” value (MCF-7 cells [4])?
The value was 5.95%.

And the “Necrosis percentage enhancement versus control” value (MCF-7 cells [4])?
Its value is “four-fold”.

And the “Total apoptosis (%)” value (MCF-7 cells [4])?
Its value is 52.05%.

What about the “Total apoptosis enhancement versus control” value (MCF-7 cells [4]) of the same compound?
The value was 22 fold.

What about the “Cell cycle distribution (%) G0–G1” value (MCF-7 cells [5]) of the same compound?
The value was 68.43%.

What about the “Cell cycle distribution (%) G2/M” value (MCF-7 cells [5]) of the same compound?
Its value is 9.3%.

And the “Cell cycle distribution (%) S” value (MCF-7 cells [5])?
The value was 22.27%.

What about the “Increase of cell population at G0–G1 phase versus control” value (MCF-7 cells [5]) of the same compound?
The value was 1.09 fold.

And the IC50 (MCF-7 cells [1])?
Its IC50 is 0.04 ± 0.009 µM.

What about the IC50 [6] of the same compound?
The IC50 was 0.14 µM.

What about the “Lowering of Bcl-2 level versus control” value (Bcl-2) of the same compound?
Its value is 6.2 fold.

And the “RT-PCR fold change, Bcl2” value (Bcl-2; control = 1)?
The value was 0.159 fold.

And the IC50 (Human VEGFR-2; VEGFR-2 IC50, as printed in section 3.2.3)?
Its IC50 is 0.243 µM.

And the IC50 (Human VEGFR-2; VEGFR-2 IC50, as printed in the abstract)?
Its IC50 is 0.103 µM.
